Format in all cases: cell-based
One assay has as its system Pseudomonas aeruginosa. The assay is described as follows: antimicrobial activity, agar streak method (MIC), aerobic gram-negative.
The test system of a further assay is Shigella sonnei. The description is as above. The text has this: The antimicrobial activities of 8,9-difluoroerythromycin 6,9-epoxide (Example 1), 8,9-difluoroerythromycin 6,9-epoxide 11,12-carbonate (Example 2) and 8,9-difluoroerythromycin 6,9-epoxide 11,12-sulfite (Example 4) are examined by an agar streak method and expressed in terms of minimal inhibitory concentrations (MIC, μg/ml) against the following bacteria.

In another assay the test system is Streptococcus pyogenes. The assay is described as follows: antimicrobial activity, agar streak method (MIC), aerobic gram-positive.
The next assay deals with Hemophilus influenzae. The assay is described as follows: antimicrobial activity, agar streak method (MIC), aerobic gram-negative. The note with it: Haemophilus influenzae.
The next assay has as its system Staphylococcus aureus. The assay is described as follows: antimicrobial activity, agar streak method (MIC), aerobic gram-positive.
A further assay relates to Proteus vulgaris. In words: antimicrobial activity, agar streak method (MIC), aerobic gram-negative.
Another assay has as its system Neisseria gonorrhoeae. The description is as above.
For a further assay, the system named is Bacillus subtilis. In words: antimicrobial activity, agar streak method (MIC), aerobic gram-positive.
The subject of another assay is Streptococcus pneumoniae. Described as above.
The next assay relates to Streptococcus faecalis. The description is as above. Particulars: Enterococcus faecalis.
A further assay concerns Clostridium perfringens. The assay is described as follows: microbe, parasite or virus in culture.
Another assay has as its system Bacterioides fragilis. The assay is described as follows: antimicrobial activity, agar streak method (MIC), anaerobic.
The subject of assay [1] is Corynebacterium diphtheriae. The assay is described as follows: antimicrobial activity, agar streak method (MIC), aerobic gram-positive.
For the next assay, the system named is Bacillus natto. The description is as above. Particulars: Bacillus subtilis.
Another assay concerns Mycoplasma homilis. The assay is described as follows: antimicrobial activity, agar streak method (MIC).
In a further assay the test system is Salmonella typhi. The assay is described as follows: antimicrobial activity, agar streak method (MIC), aerobic gram-negative. The note with it: Salmonella enterica.
For the next assay, the system named is Acholeplasma laidlawii. The assay is described as above.
The next assay concerns Micrococcus luteus. The assay is described as follows: antimicrobial activity, agar streak method (MIC), aerobic gram-positive.
The next assay concerns Escherichia coli. In words: antimicrobial activity, agar streak method (MIC), aerobic gram-negative.
The test system of assay [2] is Fusobacterium necrophorum. The assay is described as follows: antimicrobial activity, agar streak method (MIC), anaerobic.

Values after ≈ are worked out from the molar mass of the structure shown.

Regarding `CC[C@H]1OC(=O)[C@H](C)[C@@H](O[C@H]2C[C@@](C)(OC)[C@@H](O)[C@H](C)O2)[C@H](C)[C@@H](O[C@@H]2O[C@H](C)C[C@H](N(C)C)[C@H]2O)[C@@]2(C)CC(C)(F)C(F)(O2)[C@H](C)[C@@H](O)[C@]1(C)O` (stereo partly drawn) [Example 1, 8,9-difluoroerythromycin A 6,9-epoxide], the MIC in the assay with Pseudomonas aeruginosa is 26 µg/mL (≈ 34.5 µM); against Shigella sonnei, 25 µg/mL (≈ 33.2 µM); against Streptococcus pyogenes, 0.011 µg/mL (≈ 0.0146 µM); against Hemophilus influenzae, 3.5 µg/mL (≈ 4.64 µM); against Staphylococcus aureus, 0.156 µg/mL (≈ 0.207 µM); in the assay on Proteus vulgaris, 26 µg/mL (≈ 34.5 µM). Moreover, the MIC was 0.052 µg/mL (≈ 0.069 µM) in the assay on Neisseria gonorrhoeae; 0.049 µg/mL (≈ 0.065 µM) in the assay with Bacillus subtilis; 0.025 µg/mL (≈ 0.0332 µM) against Streptococcus pneumoniae; 1.25 µg/mL (≈ 1.66 µM) against Streptococcus faecalis; 0.83 µg/mL (≈ 1.1 µM) against Clostridium perfringens; 0.21 µg/mL (≈ 0.279 µM) against Bacterioides fragilis. The MIC in assay [1] was determined as 0.011 µg/mL (≈ 0.0146 µM); in the assay with Bacillus natto, 0.078 µg/mL (≈ 0.103 µM); in the assay on Mycoplasma homilis, 25 µg/mL (≈ 33.2 µM); in the assay on Salmonella typhi it was 13.2 µg/mL (≈ 17.5 µM); in the assay with Acholeplasma laidlawii it was 0.1 µg/mL (≈ 0.133 µM); against Micrococcus luteus, 0.006 µg/mL (≈ 0.00796 µM). Further, the MIC stood at 31.2 µg/mL (≈ 41.5 µM) with Escherichia coli and 2 µg/mL (≈ 2.65 µM) in assay [2].

`CC[C@H]1OC(=O)[C@H](C)[C@@H](O[C@H]2C[C@@](C)(OC)[C@@H](O)[C@H](C)O2)[C@H](C)[C@@H](O[C@@H]2O[C@H](C)C[C@H](N(C)C)[C@H]2O)[C@@]2(C)CC(C)(F)C(F)(O2)[C@H](C)[C@H]2OC(=O)O[C@@]21C` (stereo partly drawn) [Example 2, 8,9-difluoroerythromycin A 6,9-epoxide 11,12-carbonate]: the MIC against Pseudomonas aeruginosa amounted to 26 µg/mL (≈ 33.3 µM); against Shigella sonnei it was 12.5 µg/mL (≈ 16 µM); against Streptococcus pyogenes, 0.011 µg/mL (≈ 0.0141 µM); in the assay with Hemophilus influenzae, 7 µg/mL (≈ 8.98 µM); in the assay with Staphylococcus aureus, 0.156 µg/mL (≈ 0.2 µM); in the assay with Proteus vulgaris, 26 µg/mL (≈ 33.3 µM). The MIC in the assay with Neisseria gonorrhoeae worked out at 0.052 µg/mL (≈ 0.0667 µM); in the assay with Bacillus subtilis, 0.049 µg/mL (≈ 0.0628 µM); in the assay with Streptococcus pneumoniae it was 0.013 µg/mL (≈ 0.0167 µM); with Streptococcus faecalis it was 0.625 µg/mL (≈ 0.801 µM); in the assay on Clostridium perfringens it was 3.3 µg/mL (≈ 4.23 µM); against Bacterioides fragilis it was 0.84 µg/mL (≈ 1.08 µM). For the same molecule, the MIC in [1] was determined as 0.022 µg/mL (≈ 0.0282 µM); against Bacillus natto, 0.078 µg/mL (≈ 0.1 µM); in the assay on Mycoplasma homilis, 25 µg/mL (≈ 32.1 µM); with Salmonella typhi it was 13.2 µg/mL (≈ 16.9 µM); against Acholeplasma laidlawii it was 0.2 µg/mL (≈ 0.256 µM); with Micrococcus luteus, 0.02 µg/mL (≈ 0.0256 µM). Also, the MIC was found to be 7.8 µg/mL (≈ 10 µM) with Escherichia coli and 8 µg/mL (≈ 10.3 µM) in [2].

As to `CC[C@H]1OC(=O)[C@H](C)[C@@H](O[C@H]2C[C@@](C)(OC)[C@@H](O)[C@H](C)O2)[C@H](C)[C@@H](O[C@@H]2O[C@H](C)C[C@H](N(C)C)[C@H]2O)[C@@]2(C)CC(C)(F)C(F)(O2)[C@H](C)[C@H]2OS(=O)O[C@@]21C` (stereo partly drawn) [Example 4, 8,9-difluoroerythromycin A 6,9-epoxide 11,12-sulfite], the MIC in the assay on Pseudomonas aeruginosa was 26 µg/mL (≈ 32.5 µM); against Shigella sonnei, 12.5 µg/mL (≈ 15.6 µM); in the assay with Streptococcus pyogenes it was 0.011 µg/mL (≈ 0.0138 µM); in the assay with Hemophilus influenzae, 7 µg/mL (≈ 8.75 µM); in the assay on Staphylococcus aureus, 0.156 µg/mL (≈ 0.195 µM); against Proteus vulgaris, 26 µg/mL (≈ 32.5 µM). Also, the MIC against Neisseria gonorrhoeae turned out to be 0.052 µg/mL (≈ 0.065 µM); against Bacillus subtilis, 0.049 µg/mL (≈ 0.0613 µM); with Streptococcus pneumoniae, 0.013 µg/mL (≈ 0.0163 µM); in the assay on Streptococcus faecalis, 0.625 µg/mL (≈ 0.781 µM); in the assay on Clostridium perfringens, 0.3 µg/mL (≈ 0.375 µM); in the assay on Bacterioides fragilis, 0.84 µg/mL (≈ 1.05 µM). For the same molecule, the MIC in assay [1] was 0.022 µg/mL (≈ 0.0275 µM); in the assay with Bacillus natto it was 0.078 µg/mL (≈ 0.0975 µM); against Mycoplasma homilis, 25 µg/mL (≈ 31.3 µM); in the assay on Salmonella typhi it was 13.2 µg/mL (≈ 16.5 µM); with Acholeplasma laidlawii, 0.2 µg/mL (≈ 0.25 µM); against Micrococcus luteus it was 0.02 µg/mL (≈ 0.025 µM). For the same molecule, the results for the MIC (against Escherichia coli; in assay [2]) were 7.8 µg/mL (≈ 9.75 µM) and 8 µg/mL (≈ 10 µM), respectively.
